Series [1] is described as follows: Cytotoxicity against MT-4 cells without virus (Trypane Blue staining, viable cell count). It counts as cell-based. To be noted: human, no virus added, read-out: CC50 (50% cytotoxicity). The protocol: Furthermore, cytotoxicity of Compound (lH) and Compound (lP) against MT-4 cells was examined without adding virus. After staining with […] Blue, viable cells were counted. Based on the count of viable cells where the chemical was added and where no chemical was added, a degree of inhibition was calculated. A concentration of the chemical and the degree of inhibition were plotted on semilogarithmic paper to determine 50% cytotoxicity (CC50 value).

Another series has as its system AIDS virus. Briefly: Anti-AIDS viral activity: virus antigen in infected MT-4 cells by indirect fluorescent antibody method. It counts as cell-based. To be noted: Human immunodeficiency virus 1, MT4, compound added 2 hours before virus, 10^3 to 10^4 infection units, cultured 4 days, read-out: EC50 (50% infection inhibitory concentration). The protocol:
After 0.5 ml of cell suspension prepared from MT-4 cells in 1×10^5 /ml was charged in a 24 well tray, 50 μl of a solution containing a predetermined quantity of Compound (lH) or Compound (lP) was added to the suspension. After culturing at 37° C. for 2 hours in 5% (v/v) carbon dioxide incubator, 10^3 to 10^4 infection units of AIDS virus were added and cultured for 4 days. Then, a part of the culture medium was applied onto a slide glass and immobilized with acetone, after which development of virus antigen was observed by indirect fluorescent antibody method. As the primary antibody of the fluorescent antibody method, a serum of AIDS patient was used. As its secondary antibody, FITC-labelled anti-human IgG antibody was used. Based on a proportion of the infected cells and non-infected cells where the chemical was added and where no chemical was added, a rate of infection was calculated. A concentration of the chemical and the rate of infection were plotted on semilogarithmic paper to determine 50% infection inhibitory concentration (EC50 value).

Each structure is given as a SMILES string. Values after ≈ are worked out from the molar mass of the structure shown.

In the case of `Nc1nnnc2c1ncn2[C@@H]1O[C@H](CO)[C@H]1CO` [Compound (1H)], the CC50 (in general, the concentration giving 50% cytotoxicity) in series [1] was > 100 µg/mL. The EC50 with AIDS virus was determined as 0.035 µg/mL (≈ 0.139 µM).
As for `Nc1nnnc2c1ncn2[C@@H]1O[C@H](COP(=O)(O)O)[C@H]1CO` [Compound (1P)], the CC50 in series [1] was > 100 µg/mL. In the series with AIDS virus, the EC50 turned out to be 0.14 µg/mL (≈ 0.421 µM).

The values are drawn from patent US5028598A, “Oxetanocin derivatives and their salts as well as use thereof” (Nippon Kayaku Kabushiki Kaisha, priority 1989, dated 1991).
